# Measured values published in publication PMC11839852, “Preclinical comparison of (radio)lanthanides using mass spectrometry and nuclear imaging techniques: biodistribution of lanthanide-based tumor-targeting agents and lanthanides in ionic form” (European Journal of Nuclear Medicine and Molecular Imaging, 2024).
# Like-named read-outs stand apart in the source and are kept apart here. Marks after values point to notes of the source that are not given here.
# Experiments:
# [1] = system: non-tumor-bearing immunocompetent FVB mice; assay: Biodistribution of lanthanide chloride salts LnCl3 (multiplexed ICP-MS); type: in vivo; details: for Tissue uptake: Blood / Tissue uptake: Bone / Tissue uptake: Brain / Tissue uptake: Heart / Tissue uptake: Intestines / Tissue uptake: Kidneys / Tissue uptake: Liver / Tissue uptake: Lung / Tissue uptake: Muscle / Tissue uptake: Pancreas / Tissue uptake: Salivary glands / Tissue uptake: Spleen / Tissue uptake: Stomach: non-tumor-bearing mice
# [2] = system: PC-3 PIP/flu tumor-bearing mice; details: Ln-PSMA-617; for Tissue uptake: Blood / Tissue uptake: Bone / Tissue uptake: Heart / Tissue uptake: Intestines / Tissue uptake: Kidneys / Tissue uptake: Liver / Tissue uptake: Lung / Tissue uptake: Muscle / Tissue uptake: Salivary glands / Tissue uptake: Spleen / Tissue uptake: Stomach: PC-3 PIP/flu tumor-bearing mice; for Tissue uptake: PC-3 flu tumor: PSMA-negative xenograft; for Tissue uptake: PC-3 PIP tumor: PSMA-positive xenograft; for PC-3 PIP tumor-to-background organ ratios: Tumor-to-blood / PC-3 PIP tumor-to-background organ ratios: Tumor-to-liver: estimated ratios (organ <0.5% ID/g)
# [3] = 24 h p.i., estimated ratios (organ <0.5% ID/g)
# [4] = 96 h p.i., estimated ratios (organ <0.5% ID/g)
compound,measurement,setting,value
[Cl][Lu]([Cl])[Cl] [[^175Lu]LuCl3],Organ ratios: Blood-to-bone,[1]; 1 h p.i.,0.38 ± 0.23
same,Organ ratios: Blood-to-liver,[1]; 1 h p.i.,0.61 ± 0.35
same,Organ ratios: Liver-to-bone,[1]; 1 h p.i.,0.64 ± 0.13
same,Tissue uptake: Blood,[1]; 1 h p.i.,6.4 ± 2.7 % ID/g
same,Tissue uptake: Bone,[1]; 1 h p.i.,18 ± 3 % ID/g
same,Tissue uptake: Brain,[1]; 1 h p.i.,<0.5 % ID/g
same,Tissue uptake: Heart,[1]; 1 h p.i.,3.6 ± 1.5 % ID/g
same,Tissue uptake: Intestines,[1]; 1 h p.i.,3.2 ± 1.1 % ID/g
same,Tissue uptake: Kidneys,[1]; 1 h p.i.,7.3 ± 1.7 % ID/g
same,Tissue uptake: Liver,[1]; 1 h p.i.,11 ± 3 % ID/g
same,Tissue uptake: Lung,[1]; 1 h p.i.,5.6 ± 2.2 % ID/g
same,Tissue uptake: Muscle,[1]; 1 h p.i.,1.5 ± 0.6 % ID/g
same,Tissue uptake: Pancreas,[1]; 1 h p.i.,2.6 ± 0.8 % ID/g
same,Tissue uptake: Salivary glands,[1]; 1 h p.i.,2.6 ± 0.9 % ID/g
same,Tissue uptake: Spleen,[1]; 1 h p.i.,3.8 ± 0.5 % ID/g
same,Tissue uptake: Stomach,[1]; 1 h p.i.,5.8 ± 2.1 % ID/g
same,Organ ratios: Liver-to-bone,[1]; 24 h p.i.,0.49 ± 0.19
same,Organ ratios: Blood-to-bone,[1]; [3],<0.02^*
same,Organ ratios: Blood-to-liver,[1]; [3],<0.05^*
same,Tissue uptake: Blood,[1]; 24 h p.i.,<0.5 % ID/g
same,Tissue uptake: Bone,[1]; 24 h p.i.,25 ± 5 % ID/g
same,Tissue uptake: Brain,[1]; 24 h p.i.,<0.5 % ID/g
same,Tissue uptake: Heart,[1]; 24 h p.i.,0.54 ± 0.06 % ID/g
same,Tissue uptake: Intestines,[1]; 24 h p.i.,0.61 ± 0.02 % ID/g
same,Tissue uptake: Kidneys,[1]; 24 h p.i.,3.7 ± 1.0 % ID/g
same,Tissue uptake: Lung,[1]; 24 h p.i.,0.88 ± 0.13 % ID/g
same,Tissue uptake: Muscle,[1]; 24 h p.i.,<0.5 % ID/g
same,Tissue uptake: Pancreas,[1]; 24 h p.i.,<0.5 % ID/g
same,Tissue uptake: Salivary glands,[1]; 24 h p.i.,0.55 ± 0.17 % ID/g
same,Tissue uptake: Spleen,[1]; 24 h p.i.,3.5 ± 0.9 % ID/g
same,Tissue uptake: Stomach,[1]; 24 h p.i.,1.8 ± 0.3 % ID/g
same,Tissue uptake: Liver,"[1]; 24 h p.i., listed as lutetium",12 ± 3 % ID/g
same,Tissue uptake: Liver,"[1]; 24 h p.i., listed as natLu",~ 12 % ID/g
same,Organ ratios: Liver-to-bone,[1]; 96 h p.i.,0.14 ± 0.04
same,Organ ratios: Blood-to-bone,[1]; [4],<0.01^*
same,Organ ratios: Blood-to-liver,[1]; [4],<0.11^*
same,Tissue uptake: Blood,[1]; 96 h p.i.,<0.5 % ID/g
same,Tissue uptake: Bone,[1]; 96 h p.i.,35 ± 4 % ID/g
same,Tissue uptake: Brain,[1]; 96 h p.i.,<0.5 % ID/g
same,Tissue uptake: Heart,[1]; 96 h p.i.,0.89 ± 0.25 % ID/g
same,Tissue uptake: Intestines,[1]; 96 h p.i.,0.54 ± 0.14 % ID/g
same,Tissue uptake: Kidneys,[1]; 96 h p.i.,2.7 ± 0.2 % ID/g
same,Tissue uptake: Liver,[1]; 96 h p.i.,4.8 ± 0.9 % ID/g
same,Tissue uptake: Lung,[1]; 96 h p.i.,1.1 ± 0.2 % ID/g
same,Tissue uptake: Muscle,[1]; 96 h p.i.,<0.5 % ID/g
same,Tissue uptake: Pancreas,[1]; 96 h p.i.,<0.5 % ID/g
same,Tissue uptake: Salivary glands,[1]; 96 h p.i.,0.50 ± 0.06 % ID/g
same,Tissue uptake: Spleen,[1]; 96 h p.i.,2.3 ± 0.2 % ID/g
same,Tissue uptake: Stomach,[1]; 96 h p.i.,2.5 ± 0.2 % ID/g
O=C([O-])CN1CCN(CC(=O)[O-])CCN(CC(=O)NC[C@H]2CC[C@H](C(=O)N[C@@H](Cc3ccc4ccccc4c3)C(=O)NCCCC[C@H](NC(=O)N[C@@H](CCC(=O)O)C(=O)O)C(=O)O)CC2)CCN(CC(=O)[O-])CC1.[153Eu+3] [[^153Eu]Eu-PSMA-617],PC-3 PIP tumor-to-background organ ratios: Tumor-to-kidney,[2]; 1 h p.i.,3.3 ± 1.1
same,Tissue uptake: Blood,[2]; 1 h p.i.,<0.5 % ID/g
same,Tissue uptake: Bone,[2]; 1 h p.i.,<0.5 % ID/g
same,Tissue uptake: Heart,[2]; 1 h p.i.,0.52 ± 0.42 % ID/g
same,Tissue uptake: Intestines,[2]; 1 h p.i.,<0.5 % ID/g
same,Tissue uptake: Kidneys,[2]; 1 h p.i.,8.1 ± 3.5 % ID/g
same,Tissue uptake: Liver,[2]; 1 h p.i.,<0.5 % ID/g
same,Tissue uptake: Lung,[2]; 1 h p.i.,<0.5 % ID/g
same,Tissue uptake: Muscle,[2]; 1 h p.i.,<0.5 % ID/g
same,Tissue uptake: Salivary glands,[2]; 1 h p.i.,<0.5 % ID/g
same,Tissue uptake: Spleen,[2]; 1 h p.i.,0.51 ± 0.17 % ID/g
same,Tissue uptake: Stomach,[2]; 1 h p.i.,<0.5 % ID/g
same,Tissue uptake: PC-3 flu tumor,[2]; 1 h p.i.,<0.5 % ID/g
same,Tissue uptake: PC-3 PIP tumor,[2]; 1 h p.i.,24 ± 3 % ID/g
same,PC-3 PIP tumor-to-background organ ratios: Tumor-to-blood,[2]; 1 h p.i.,>50^*
same,PC-3 PIP tumor-to-background organ ratios: Tumor-to-liver,[2]; 1 h p.i.,>50^*
same,PC-3 PIP tumor-to-background organ ratios: Tumor-to-kidney,[2]; 4 h p.i.,23 ± 3
same,Tissue uptake: Blood,[2]; 4 h p.i.,<0.5 % ID/g
same,Tissue uptake: Bone,[2]; 4 h p.i.,<0.5 % ID/g
same,Tissue uptake: Heart,[2]; 4 h p.i.,<0.5 % ID/g
same,Tissue uptake: Intestines,[2]; 4 h p.i.,<0.5 % ID/g
same,Tissue uptake: Kidneys,[2]; 4 h p.i.,1.1 ± 0.3 % ID/g
same,Tissue uptake: Liver,[2]; 4 h p.i.,<0.5 % ID/g
same,Tissue uptake: Lung,[2]; 4 h p.i.,<0.5 % ID/g
same,Tissue uptake: Muscle,[2]; 4 h p.i.,<0.5 % ID/g
same,Tissue uptake: Salivary glands,[2]; 4 h p.i.,<0.5 % ID/g
same,Tissue uptake: Spleen,[2]; 4 h p.i.,<0.5 % ID/g
same,Tissue uptake: Stomach,[2]; 4 h p.i.,<0.5 % ID/g
same,Tissue uptake: PC-3 flu tumor,[2]; 4 h p.i.,<0.5 % ID/g
same,Tissue uptake: PC-3 PIP tumor,[2]; 4 h p.i.,23 ± 3 % ID/g
same,PC-3 PIP tumor-to-background organ ratios: Tumor-to-blood,[2]; 4 h p.i.,>46^*
same,PC-3 PIP tumor-to-background organ ratios: Tumor-to-liver,[2]; 4 h p.i.,>46^*
O=C([O-])CN1CCN(CC(=O)[O-])CCN(CC(=O)NCC2CCC(C(=O)NC(Cc3ccc4ccccc4c3)C(=O)NCCCCC(NC(=O)NC(CCC(=O)O)C(=O)O)C(=O)O)CC2)CCN(CC(=O)[O-])CC1.[Tb+3] (stereo not shown) [[^159Tb]Tb-PSMA-617],PC-3 PIP tumor-to-background organ ratios: Tumor-to-kidney,[2]; 1 h p.i.,3.3 ± 1.0
same,Tissue uptake: Blood,[2]; 1 h p.i.,<0.5 % ID/g
same,Tissue uptake: Bone,[2]; 1 h p.i.,<0.5 % ID/g
same,Tissue uptake: Heart,[2]; 1 h p.i.,<0.5 % ID/g
same,Tissue uptake: Intestines,[2]; 1 h p.i.,<0.5 % ID/g
same,Tissue uptake: Kidneys,[2]; 1 h p.i.,8.4 ± 3.5 % ID/g
same,Tissue uptake: Liver,[2]; 1 h p.i.,<0.5 % ID/g
same,Tissue uptake: Lung,[2]; 1 h p.i.,<0.5 % ID/g
same,Tissue uptake: Muscle,[2]; 1 h p.i.,<0.5 % ID/g
same,Tissue uptake: Salivary glands,[2]; 1 h p.i.,<0.5 % ID/g
same,Tissue uptake: Spleen,[2]; 1 h p.i.,<0.5 % ID/g
same,Tissue uptake: Stomach,[2]; 1 h p.i.,<0.5 % ID/g
same,Tissue uptake: PC-3 flu tumor,[2]; 1 h p.i.,<0.5 % ID/g
same,Tissue uptake: PC-3 PIP tumor,[2]; 1 h p.i.,25 ± 3 % ID/g
same,PC-3 PIP tumor-to-background organ ratios: Tumor-to-blood,[2]; 1 h p.i.,>51^*
same,PC-3 PIP tumor-to-background organ ratios: Tumor-to-liver,[2]; 1 h p.i.,>51^*
same,PC-3 PIP tumor-to-background organ ratios: Tumor-to-kidney,[2]; 4 h p.i.,24 ± 3
same,Tissue uptake: Blood,[2]; 4 h p.i.,<0.5 % ID/g
same,Tissue uptake: Bone,[2]; 4 h p.i.,<0.5 % ID/g
same,Tissue uptake: Heart,[2]; 4 h p.i.,<0.5 % ID/g
same,Tissue uptake: Intestines,[2]; 4 h p.i.,<0.5 % ID/g
same,Tissue uptake: Kidneys,[2]; 4 h p.i.,1.0 ± 0.2 % ID/g
same,Tissue uptake: Liver,[2]; 4 h p.i.,<0.5 % ID/g
same,Tissue uptake: Lung,[2]; 4 h p.i.,<0.5 % ID/g
same,Tissue uptake: Muscle,[2]; 4 h p.i.,<0.5 % ID/g
same,Tissue uptake: Salivary glands,[2]; 4 h p.i.,<0.5 % ID/g
same,Tissue uptake: Spleen,[2]; 4 h p.i.,<0.5 % ID/g
same,Tissue uptake: Stomach,[2]; 4 h p.i.,<0.5 % ID/g
same,Tissue uptake: PC-3 flu tumor,[2]; 4 h p.i.,<0.5 % ID/g
same,Tissue uptake: PC-3 PIP tumor,[2]; 4 h p.i.,23 ± 3 % ID/g
same,PC-3 PIP tumor-to-background organ ratios: Tumor-to-blood,[2]; 4 h p.i.,>46^*
same,PC-3 PIP tumor-to-background organ ratios: Tumor-to-liver,[2]; 4 h p.i.,>46^*
O=C([O-])CN1CCN(CC(=O)[O-])CCN(CC(=O)NCC2CCC(C(=O)NC(Cc3ccc4ccccc4c3)C(=O)NCCCCC(NC(=O)NC(CCC(=O)O)C(=O)O)C(=O)O)CC2)CCN(CC(=O)[O-])CC1.[Lu+3] (stereo not shown) [[^175Lu]Lu-PSMA-617],PC-3 PIP tumor-to-background organ ratios: Tumor-to-kidney,[2]; 1 h p.i.,2.7 ± 0.8
same,Tissue uptake: Blood,[2]; 1 h p.i.,<0.5 % ID/g
same,Tissue uptake: Bone,[2]; 1 h p.i.,<0.5 % ID/g
same,Tissue uptake: Heart,[2]; 1 h p.i.,<0.5 % ID/g
same,Tissue uptake: Intestines,[2]; 1 h p.i.,<0.5 % ID/g
same,Tissue uptake: Kidneys,[2]; 1 h p.i.,10 ± 4 % ID/g
same,Tissue uptake: Liver,[2]; 1 h p.i.,<0.5 % ID/g
same,Tissue uptake: Lung,[2]; 1 h p.i.,<0.5 % ID/g
same,Tissue uptake: Muscle,[2]; 1 h p.i.,<0.5 % ID/g
same,Tissue uptake: Salivary glands,[2]; 1 h p.i.,<0.5 % ID/g
same,Tissue uptake: Spleen,[2]; 1 h p.i.,0.64 ± 0.48 % ID/g
same,Tissue uptake: Stomach,[2]; 1 h p.i.,0.56 ± 0.19 % ID/g
same,Tissue uptake: PC-3 flu tumor,[2]; 1 h p.i.,<0.5 % ID/g
same,Tissue uptake: PC-3 PIP tumor,[2]; 1 h p.i.,25 ± 3 % ID/g
same,PC-3 PIP tumor-to-background organ ratios: Tumor-to-blood,[2]; 1 h p.i.,>51^*
same,PC-3 PIP tumor-to-background organ ratios: Tumor-to-liver,[2]; 1 h p.i.,>51^*
same,PC-3 PIP tumor-to-background organ ratios: Tumor-to-kidney,[2]; 4 h p.i.,18 ± 3
same,Tissue uptake: Blood,[2]; 4 h p.i.,<0.5 % ID/g
same,Tissue uptake: Bone,[2]; 4 h p.i.,<0.5 % ID/g
same,Tissue uptake: Heart,[2]; 4 h p.i.,<0.5 % ID/g
same,Tissue uptake: Intestines,[2]; 4 h p.i.,<0.5 % ID/g
same,Tissue uptake: Kidneys,[2]; 4 h p.i.,1.4 ± 0.4 % ID/g
same,Tissue uptake: Liver,[2]; 4 h p.i.,<0.5 % ID/g
same,Tissue uptake: Lung,[2]; 4 h p.i.,<0.5 % ID/g
same,Tissue uptake: Muscle,[2]; 4 h p.i.,<0.5 % ID/g
same,Tissue uptake: Salivary glands,[2]; 4 h p.i.,<0.5 % ID/g
same,Tissue uptake: Spleen,[2]; 4 h p.i.,<0.5 % ID/g
same,Tissue uptake: Stomach,[2]; 4 h p.i.,<0.5 % ID/g
same,Tissue uptake: PC-3 flu tumor,[2]; 4 h p.i.,<0.5 % ID/g
same,Tissue uptake: PC-3 PIP tumor,[2]; 4 h p.i.,23 ± 3 % ID/g
same,PC-3 PIP tumor-to-background organ ratios: Tumor-to-blood,[2]; 4 h p.i.,>47^*
same,PC-3 PIP tumor-to-background organ ratios: Tumor-to-liver,[2]; 4 h p.i.,>47^*
